Read-outs that look alike come from different tables or passages of the source.
How the values were obtained:
Assay type in all cases: cell-based
[1] = test system: Q30R in genotype 1a NS5A, 1a Rluc replicon transfected into Huh-7 cured-51 cells; test: HCV replicon assay, resistance mutant 1a Q30R; conditions: Hepatitis C virus, Huh-7, read-out: 1a Q30R
Procedure, shortened: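 Q30R introduced into genotype 1a H77 RLuc replicon by site-directed mutagenesis; replicon RNA transfected into Huh-7 cured-51 cells.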

[2] = test system: HCV 2a Rluc cells (NS5A chimeric genotype 2a JFH-1 replicon with genotype 2a J6 strain NS5A gene, M31 present); test: HCV replicon reporter assay, genotype 2a J6 (M31 present); conditions: Hepatitis C virus, read-out: 2a J6
Procedure, shortened: (§1)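 Replicons used: genotype 1b Con1, 1a H77, 2a JFH-1, and a 2a JFH-1 chimera with J6-strain NS5A (M31 present), all dicistronic.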

[3] = test system: HCV 1a RLuc cells (dicistronic genotype 1a H77 replicon, RLuc reporter); test: microbe, parasite or virus in culture; conditions: Hepatitis C virus, read-out: 1a
Procedure, shortened: as §1

[4] = test system: HCV 3a RLuc cells (NS5A chimeric genotype 1b Con1 replicon with consensus genotype 3a NS5A gene); test: microbe, parasite or virus in culture; conditions: Hepatitis C virus
Procedure, shortened: (§2)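 Replicon cells stably carrying the listed RLuc-encoding dicistronic replicons were seeded and treated with DMSO serial dilutions of compound (10 mM stocks) diluted into culture medium. After 72 h, cells were lysed and Renilla luciferase activity measured. EC50 was derived by non-linear regression.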

[5] = test system: HCV 2a JFH-1 Rluc cells (dicistronic genotype 2a JFH-1 replicon, RLuc reporter); test: microbe, parasite or virus in culture; conditions: Hepatitis C virus, read-out: 2a JFH
Procedure, shortened: as §1

[6] = test system: HCV 2b Rluc cells (NS5A chimeric genotype 2a JFH-1 replicon with genotype 2b MD2b-1 NS5A gene, M31 present); test: microbe, parasite or virus in culture; conditions: Hepatitis C virus, read-out: 2b
Procedure, shortened: as §2

[7] = test system: HCV 1b RLuc cells (dicistronic genotype 1b Con1 replicon, RLuc reporter); test: microbe, parasite or virus in culture; conditions: Hepatitis C virus, read-out: 1b (nM)
Procedure, shortened: as §1

[8] = test system: HCV 4a Rluc cells (NS5A chimeric genotype 1b Con1 replicon with genotype 4a NS5A gene); test: microbe, parasite or virus in culture; conditions: Hepatitis C virus, read-out: 4a
Procedure, shortened: as §2

[9] = read-out: 3a, genotype 3a NS5A chimeric replicon
[10] = genotype 2a JFH-1 RLuc replicon
[11] = read-out: 3a, genotype 3a replicon

Compound | EC50 [1] | EC50 [2] | EC50 ([3]; genotype 1a H77 RLuc replicon) | EC50 [4, 9] | EC50 [5, 10] | EC50 [6] | EC50 [7] | EC50 [8] | EC50 ([3]; genotype 1a replicon) | EC50 [4, 11] | EC50 ([5]; genotype 2a JFH-1 replicon)
COC[C@H]1C[C@@H](c2nc3ccc4cc(-c5ccc(-c6[nH]c([C@@H]7CCCN7C(=O)[C@H](NC(=O)C7CC7)c7ccccc7)nc6C)cc5)ccc4c3[nH]2)N(C(=O)[C@@H](NC(=O)OC)C(C)C)C1 [Example 525] | 0.001 to 0.999 nM | 0.001 to 0.999 nM | 0.001 to 0.999 nM | 0.001 to 0.99 nM | 0.001 to 0.999 nM | 0.001 to 0.999 nM | 0.038 nM | 0.001 to 0.99 nM |  |  | 
COC[C@H]1C[C@@H](c2nc3ccc4cc(-c5ccc6c(ccc7nc([C@@H]8CC[C@H](C)N8C(=O)[C@@H](NC(=O)OC)C(C)C)[nH]c76)c5)ccc4c3[nH]2)N(C(=O)[C@H](NC(=O)OC)c2ccccc2)C1 [Example 554] | 0.001 to 0.999 nM | 0.001 to 0.999 nM | 0.001 to 0.999 nM | 0.001 to 0.99 nM | 0.001 to 0.999 nM | 0.001 to 0.999 nM | 0.012 nM | 0.001 to 0.99 nM |  |  | 
COC(=O)N[C@H](C(=O)N1CCC[C@H]1c1ncc(-c2ccc3c(c2)COc2cc4c(ccc5nc([C@@H]6CCCN6C(=O)[C@@H](NC(=O)OC)C(C)C)[nH]c54)cc2-3)[nH]1)C(C)C [Example 422] | 0.001 to 0.999 nM | 1 to 44 nM |  |  |  | 0.001 to 0.999 nM | 0.017 nM | 0.001 to 0.99 nM | 0.001 to 0.999 nM | 0.001 to 0.99 nM | 0.001 to 0.999 nM
COC(=O)N[C@H](C(=O)N1CCC[C@H]1c1nc2ccc3cc(-c4ccc5c(ccc6nc([C@@H]7[C@@H]8CC[C@@H](C8)N7C(=O)[C@@H](NC(=O)OC)C(C)C)[nH]c65)c4)ccc3c2[nH]1)C(C)C [Example 339] | 1 to 44 nM | 0.001 to 0.999 nM |  |  |  | 1 to 44 nM | 0.026 nM | 0.001 to 0.99 nM | 0.001 to 0.999 nM | 0.001 to 0.99 nM | 0.001 to 0.999 nM
COC[C@H]1C[C@@H](c2nc3ccc4cc(-c5ccc6c(ccc7nc([C@@H]8C[C@H](C)CN8C(=O)[C@@H](NC(=O)OC)C(C)C)[nH]c76)c5)ccc4c3[nH]2)N(C(=O)[C@@H](NC(=O)OC)C2CCOCC2)C1 [Example 560] | 0.001 to 0.999 nM | 0.001 to 0.999 nM | 0.001 to 0.999 nM | 0.001 to 0.99 nM | 0.001 to 0.999 nM | 0.001 to 0.999 nM | 0.092 nM | 0.001 to 0.99 nM |  |  | 
COC[C@H]1C[C@@H](c2nc3ccc4cc(-c5ccc6c(ccc7nc([C@@H]8C[C@H](C)CN8C(=O)[C@@H](NC(=O)OC)C(C)C)[nH]c76)c5)ccc4c3[nH]2)N(C(=O)[C@@H](NC(=O)OC)C(C)C)C1 [Example 568] | 0.001 to 0.999 nM | 0.001 to 0.999 nM | 0.001 to 0.999 nM | 0.001 to 0.99 nM | 0.001 to 0.999 nM | 0.001 to 0.999 nM | 0.021 nM | 0.001 to 0.99 nM |  |  | 
COC[C@H]1C[C@@H](c2ncc(-c3ccc(-c4ccc(-c5cnc([C@@H]6C[C@H]7C[C@H]7N6C(=O)[C@@H](NC(=O)OC)C(C)C)[nH]5)cc4)cc3)[nH]2)N(C(=O)[C@H](NC(=O)C2CC2)c2ccccc2)C1 [Example 527] | 0.001 to 0.999 nM | 0.001 to 0.999 nM | 0.001 to 0.999 nM | 0.001 to 0.99 nM | 0.001 to 0.999 nM | 0.001 to 0.999 nM | 0.022 nM | 0.001 to 0.99 nM |  |  | 
COC[C@H]1C[C@@H](c2nc3ccc4cc(-c5ccc(-c6cnc([C@@H]7CCCN7C(=O)[C@@H](NC(=O)OC)C(C)C)[nH]6)cc5)ccc4c3[nH]2)N(C(=O)[C@H](NC(=O)OC)c2ccccc2)C1 [Example 433] | 0.001 to 0.999 nM | 0.001 to 0.999 nM |  |  |  | 0.001 to 0.999 nM | 0.02 nM | 0.001 to 0.99 nM | 0.001 to 0.999 nM | 0.001 to 0.99 nM | 0.001 to 0.999 nM
COC[C@H]1C[C@@H](c2nc3ccc4cc(-c5ccc6c(ccc7nc([C@@H]8C[C@H](SCC(F)(F)F)CN8C(=O)[C@@H](NC(=O)OC)C(C)C)[nH]c76)c5)ccc4c3[nH]2)N(C(=O)[C@H](NC(=O)OC)c2ccccc2)C1 [Example 584] | 0.001 to 0.999 nM | 0.001 to 0.999 nM | 0.001 to 0.999 nM | 0.001 to 0.99 nM | 0.001 to 0.999 nM | 0.001 to 0.999 nM | 0.015 nM | 0.001 to 0.99 nM |  |  | 
COC[C@H]1C[C@@H](c2nc3ccc4cc5c(cc4c3[nH]2)OCc2cc(-c3cnc([C@@H]4C[C@H]6C[C@H]6N4C(=O)[C@@H](NC(=O)OC)C(C)C)[nH]3)ccc2-5)N(C(=O)[C@H](NC(=O)OC)c2ccccc2)C1 [Example 539] | 0.001 to 0.999 nM | 0.001 to 0.999 nM | 0.001 to 0.999 nM | 0.001 to 0.99 nM | 0.001 to 0.999 nM | 0.001 to 0.999 nM | 0.016 nM | 0.001 to 0.99 nM |  |  | 
COC[C@H]1C[C@@H](c2ncc(-c3ccc(-c4ccc(-c5cnc([C@@H]6CCCN6C(=O)[C@@H](NC(=O)OC)C(C)C)[nH]5)cc4)cc3)[nH]2)N(C(=O)[C@H](NC(=O)C2CC2)c2ccccc2)C1 [Example 506] | 0.001 to 0.999 nM | 0.001 to 0.999 nM | 0.001 to 0.999 nM | 0.001 to 0.99 nM | 0.001 to 0.999 nM | 0.001 to 0.999 nM | 0.036 nM | 0.001 to 0.99 nM |  |  | 
COC[C@H]1C[C@@H](c2nc3ccc4cc5c(cc4c3[nH]2)OCc2cc(-c3cnc([C@@H]4CCCN4C(=O)[C@@H](NC(=O)OC)C(C)C)[nH]3)ccc2-5)N(C(=O)[C@H](N)c2ccccc2)C1 [Example 571] | 0.001 to 0.999 nM | 0.001 to 0.999 nM | 0.001 to 0.999 nM | 0.001 to 0.99 nM | 0.001 to 0.999 nM | 0.001 to 0.999 nM | 0.114 nM | 0.001 to 0.99 nM |  |  | 
CCO[C@H]1C[C@@H](c2nc3ccc4cc5c(cc4c3[nH]2)OCc2cc(-c3cnc([C@@H]4CCCN4C(=O)[C@@H](NC(=O)OC)C(C)C)[nH]3)ccc2-5)N(C(=O)[C@@H](NC(=O)OC)C(C)C)C1 [Example 551] | 0.001 to 0.999 nM | 0.001 to 0.999 nM | 0.001 to 0.999 nM | 0.001 to 0.99 nM | 0.001 to 0.999 nM | 0.001 to 0.999 nM | 0.018 nM | 0.001 to 0.99 nM |  |  | 
COC(=O)N[C@H](C(=O)N1C[C@@H](C)C[C@H]1c1ncc(-c2ccc3c(c2)COc2cc4c(ccc5nc([C@@H]6C[C@H](C)CN6C(=O)[C@@H](NC(=O)OC)C(C)C)[nH]c54)cc2-3)[nH]1)C(C)C [Example 569] | 0.001 to 0.999 nM | 0.001 to 0.999 nM | 0.001 to 0.999 nM | 0.001 to 0.99 nM | 0.001 to 0.999 nM | 0.001 to 0.999 nM | 0.024 nM | 0.001 to 0.99 nM |  |  | 
COC[C@H]1C[C@@H](c2ncc(-c3ccc4c(c3)COc3cc5c(ccc6nc([C@@H]7CCCN7C(=O)[C@@H](NC(=O)OC)C(C)C)[nH]c65)cc3-4)[nH]2)N(C(=O)[C@H](NC(=O)OC)c2ccccc2)C1 [Example 590] | 0.001 to 0.999 nM | 0.001 to 0.999 nM | 0.001 to 0.999 nM | 0.001 to 0.99 nM | 0.001 to 0.999 nM | 0.001 to 0.999 nM | 0.014 nM | 0.001 to 0.99 nM |  |  | 

— patent US10344019B2 (priority 2010, dated 2019)
